Here are results for three compounds from patent US5364879A, “Medical uses of trioxolane and diperoxide compounds” (Cliveden Ltd., priority 1994, dated 1994).

On the set-up of series [1]: species or system New Zealand White rabbits. To be noted: rabbit, in vivo.
Details of series [2]: species or system New Zealand White rabbits. The note with it: rabbit, in vivo. This is another data set of the same source.
Another series can be described thus: in vivo. The note with it: mouse.
Series [3] has as its system S. aureus. Description: microbe, parasite or virus in culture. To be noted: Staphylococcus aureus, read-out: lowest concentration inhibiting at least one isolate. Type of series: cell-based.
In another series the test system is S. epidermidis. Kind of series: MIC by agar diffusion method. To be noted: Staphylococcus epidermidis. Type of series: cell-based. A general note: A growth-free zone around the sample is the usual read-out of agar diffusion tests.
In the next series the test system is N. gonorrhoea. Description: MIC by agar diffusion method. The series is classed as cell-based, Neisseria gonorrhoea. To be noted: Neisseria.
In a further series the test system is Klebisella. Description: microbe, parasite or virus in culture. The series is classed as cell-based, Klebsiella spp. The note with it: Klebsiella.
The next series has as its system E. coli. Description: microbe, parasite or virus in culture. Type of series: cell-based. To be noted: Escherichia coli.
A further series deals with Archromobacter. Description: MIC by agar diffusion method. Type of series: cell-based. The note with it: Achromobacter, N = 1.
Another series relates to C. albicans. Description: MIC by agar diffusion method. The series is classed as cell-based. To be noted: Candida albicans, N = 5.
The next series relates to Tri. violaceum. Kind of series: microbe, parasite or virus in culture. Type of series: cell-based, Trichophyton violaceurn. To be noted: Trichophyton violaceum.
In the next series the test system is Tri. canis. Description: microbe, parasite or virus in culture. The series is classed as cell-based, Trichophyton canis. The note with it: Trichophyton.
In the next series the test system is Cryptococcus. Description: MIC by agar diffusion method. The note with it: N = 1. Type of series: cell-based, Cryptoccus spp.
In a further series the test system is Ph. verrucose. Description: microbe, parasite or virus in culture. Type of series: cell-based, Phialophora verrucose. The note with it: Phialophora.
A further series relates to Penicillium. Description: MIC by agar diffusion method. Type of series: cell-based, Penicillium spp. To be noted: N = 1.
For series [4], the system named is EPEC/ETEC. Description: MIC in agar dilution. Type of series: cell-based, Enteropathogenic/enterotoxigenic Escherichia coli. To be noted: Escherichia coli, N = 5. On the technique in general: In agar dilution, organisms are placed on agar that contains the substance at set levels.
Series [5] deals with Candida. Kind of series: MIC in agar dilution. The series is classed as cell-based, Candida spp. The note with it: N = 2.
The subject of series [6] is EPEC/ETEC. Description: MIC in broth. Type of series: cell-based, Enteropathogenic/enterotoxigenic Escherichia coli. To be noted: Escherichia coli, N = 5.
The test system of series [7] is Candida. Kind of series: MIC in broth. Type of series: cell-based, Candida spp. The note with it: N = 2.
The subject of series [8] is S. aureus. Description: microbe, parasite or virus in culture. The series is classed as cell-based. To be noted: Staphylococcus aureus.
The subject of a further series is Salmonella. Kind of series: microbe, parasite or virus in culture. Type of series: cell-based, Salmonella spp.
Another series has as its system Shigella. Description: microbe, parasite or virus in culture. Type of series: cell-based, Shigella spp.
For the next series, the system named is Pseudomonas. Kind of series: microbe, parasite or virus in culture. The series is classed as cell-based, Pseudomonas spp.
For series [9], the system named is Candida. Description: microbe, parasite or virus in culture. The series is classed as cell-based, Candida spp.
The subject of series [10] is Myeloma cell line (x63 balb/c line). Description: Effect on myeloma cell line. The series is classed as cell-based.
For a further series, the system named is human spermatozoa. Description: Effect on spermatozoa. Type of series: cell-based.
Series [11] relates to microorganisms which cause common infections. Type of series: cell-based.
In the next series the test system is lymphocytes. Description: Immunomodulatory activity, bone marrow examination. The series is classed as in vivo. The note with it: Balb/c mice.
The test system of another series is Leishmania major. Kind of series: Treatment of mice infected with Leishmania major. Type of series: in vivo, Leishmania major (balb/c mice).
Another series concerns Leishmania donova. Also on record: species or system Leishmania donova (Balb/c mice). The note with it: mouse, in vivo.
For series [12] the following is noted: mouse, in vivo, ip.

In brackets after ≈: the same amount, converted by molar mass. Like-named read-outs stand apart in the source and are kept apart here.

In general, LD50 refers to the dose expected to kill half of the subjects tested. Low values mean greater toxicity, high ones lower toxicity. For the compound `CC1(C)OOC(CCC(C)(O)C2OCOO2)O1` (centres unmarked) [linalool trioxolane], in series [1], the “Primary Irritation Index (PII)” value came to 1.0. Besides, the ocular irritation result in series [2] is given as “non-irritant”. Besides, in “in vivo”, the 50% lethal dose (LD50) is ~3000 mg/kg.
Take `CCC1OOC(CCO)O1` (stereo not drawn) [trioxolane derivative of cis 3-hexene-1-ol]: the MIC in the series on S. aureus [3] was 31 µg/mL (≈ 209 µM); in the series with S. epidermidis (read-out: lowest concentration inhibiting at least one isolate), 31 µg/mL (≈ 209 µM); in the series on S. epidermidis (agar diffusion, N = 14, read-out: MIC), 25 µg/mL (≈ 169 µM); in the series on N. gonorrhoea (N = 49, number in parentheses, read-out: lowest concentration inhibiting at least one isolate), 1.9 µg/mL (≈ 12.8 µM); with N. gonorrhoea (N = 49, read-out: MIC), 3.5 µg/mL (≈ 23.6 µM); in the series on Klebisella, 7 µg/mL (≈ 47.2 µM). Also, the MIC in the series on E. coli worked out at 120 µg/mL (≈ 810 µM); with Archromobacter, 60 µg/mL (≈ 405 µM); with C. albicans it was 31 µg/mL (≈ 209 µM); in the series with Tri. violaceum, 150 µg/mL (≈ 1010 µM); in the series on Tri. canis, 150 µg/mL (≈ 1010 µM); against Cryptococcus, 15 µg/mL (≈ 101 µM). The MIC in the series on Ph. verrucose worked out at 150 µg/mL (≈ 1010 µM); with Penicillium, 310 µg/mL (≈ 2090 µM); against EPEC/ETEC [4] it was 31 µg/mL (≈ 209 µM); against Candida [5] it was 31 µg/mL (≈ 209 µM); against EPEC/ETEC [6], 620 µg/mL (≈ 4180 µM); against Candida [7], 310 µg/mL (≈ 2090 µM). Besides, the MBC against S. aureus [8] came out at 1250 µg/mL (≈ 8440 µM); against Salmonella, 2500 µg/mL (≈ 16900 µM); with Shigella, 1250 µg/mL (≈ 8440 µM); with Pseudomonas it was 1250 µg/mL (≈ 8440 µM); in the series on Candida [9] it was 1250 µg/mL (≈ 8440 µM). The “time within which myeloma cell line was killed” value in series [10] is ≤ 48 h. Besides, in the series with human spermatozoa, the “time within which human spermatozoa were killed” value is ≤ 1 min. Further, the “activity compared with Geraniol trioxolane” value in [11] was “more active than Geraniol trioxolane”. Moreover, the “activity compared with conventional drugs” value in [11] is reported as “more active than conventional drugs”. For the same compound, the “direct bioactivity, agar vs broth” value in series [11] is “better in agar than in broth methods”. For the same compound, the “effect of water on direct bioactivity” value in [11] is on record as “significantly reduces”. The “relationship with resistance and sensitivity to conventional antibiotics” value in series [11] is on record as “no relationship”. Further, the “sensitivity of all the microorganisms tested” value in series [11] was “uniformly sensitive”. Further, the “new clones of lymphocytes in bone marrow vs mice without any drug” value with lymphocytes was “increase in new clones of lymphocytes”. The “lesions, Day 0” value is “Large lesions” in the series with Leishmania major (IP, n = 15/group) and “Large lesions” with Leishmania major (topical, n = 15/group). Further, the “lesions, Day 14” value with Leishmania major (IP, n = 15/group) is reported as “Lesions scabbed”. Moreover, the “number dead, Day 14” value in the series with Leishmania major (IP, n = 15/group) came to 2. The “number with palate involvement, Day 14” value with Leishmania major (IP, n = 15/group) is 2. The “general condition, Day 14” value in the series with Leishmania major (topical, n = 15/group) is listed as “Animals healthy and”. Also, in the series with Leishmania donova, the “clearing parasites from the viscera compared with Pentostam” value is recorded as “perform better than Pentostam”. Further, the minimum lethal dose in [12] turned out to be 3000 mg/kg. The “tolerability in studies on LD50” value in series [12] is “highly tolerated”.
Take `O.O.O.O.O.O.O.O.O.O=C([O-])[C@@H]1[O][Sb](=[O])([O][Sb]2(=[O])[O][C@H]([C@H](O)CO)[C@H](O)[C@H](C(=O)[O-])[O]2)[O][C@H]([C@H](O)CO)[C@@H]1O.[Na+].[Na+].[Na+]` (some centres unmarked) [Pentostam, reference compound]: in the series on Leishmania major (mouse, in vivo, ip), the “lesions, Day 14” value is given as “Large lesions”; the “number dead, Day 14” value came to 1; the “palate involvement, Day 14” value was “involvement”.
